Experiment: molar heat capacity at saturation pressure

C1C2CC3CC1CC(C14CC5CC(CC(C5)C1)C4)(C2)C3 [1,1'-biadamantane]
Settings | molar heat capacity [J/K/mol]
306.17 K, Crystal 3, Small (less than 1 g) adiabatic calorimetry | 347.5
307.06 K, Crystal 3, Small (less than 1 g) adiabatic calorimetry | 348.5
307.82 K, Crystal 3, Small (less than 1 g) adiabatic calorimetry | 349.9
309.07 K, Crystal 3, Small (less than 1 g) adiabatic calorimetry | 351.4
309.47 K, Crystal 3, Small (less than 1 g) adiabatic calorimetry | 352.2
311.07 K, Crystal 3, Small (less than 1 g) adiabatic calorimetry | 354
311.11 K, Crystal 3, Small (less than 1 g) adiabatic calorimetry | 354.6
312.75 K, Crystal 3, Small (less than 1 g) adiabatic calorimetry | 356.8
313.06 K, Crystal 3, Small (less than 1 g) adiabatic calorimetry | 356.9
314.38 K, Crystal 3, Small (less than 1 g) adiabatic calorimetry | 359.1
315.04 K, Crystal 3, Small (less than 1 g) adiabatic calorimetry | 359.6
316.02 K, Crystal 3, Small (less than 1 g) adiabatic calorimetry | 361.4
317.02 K, Crystal 3, Small (less than 1 g) adiabatic calorimetry | 362.4
317.64 K, Crystal 3, Small (less than 1 g) adiabatic calorimetry | 363.7
319 K, Crystal 3, Small (less than 1 g) adiabatic calorimetry | 365.1
319.26 K, Crystal 3, Small (less than 1 g) adiabatic calorimetry | 366
320.52 K, Crystal 3, Small (less than 1 g) adiabatic calorimetry | 367.5
320.8 K, Crystal 3, Small (less than 1 g) adiabatic calorimetry | 367.7
321.41 K, Crystal 3, Small (less than 1 g) adiabatic calorimetry | 368.7
322.3 K, Crystal 3, Small (less than 1 g) adiabatic calorimetry | 370.2
322.43 K, Crystal 3, Small (less than 1 g) adiabatic calorimetry | 370.1
323.19 K, Crystal 3, Small (less than 1 g) adiabatic calorimetry | 371.6
324.05 K, Crystal 3, Small (less than 1 g) adiabatic calorimetry | 372.5
324.09 K, Crystal 3, Small (less than 1 g) adiabatic calorimetry | 372.8
324.98 K, Crystal 3, Small (less than 1 g) adiabatic calorimetry | 374.1
325.67 K, Crystal 3, Small (less than 1 g) adiabatic calorimetry | 375
325.87 K, Crystal 3, Small (less than 1 g) adiabatic calorimetry | 375.2
326.76 K, Crystal 3, Small (less than 1 g) adiabatic calorimetry | 376.5
327.28 K, Crystal 3, Small (less than 1 g) adiabatic calorimetry | 377.6
327.65 K, Crystal 3, Small (less than 1 g) adiabatic calorimetry | 377.8
328.53 K, Crystal 3, Small (less than 1 g) adiabatic calorimetry | 379.5
328.89 K, Crystal 3, Small (less than 1 g) adiabatic calorimetry | 380.4
329.42 K, Crystal 3, Small (less than 1 g) adiabatic calorimetry | 380.9
330.31 K, Crystal 3, Small (less than 1 g) adiabatic calorimetry | 382.3
330.5 K, Crystal 3, Small (less than 1 g) adiabatic calorimetry | 384
331.19 K, Crystal 3, Small (less than 1 g) adiabatic calorimetry | 388.1
332.05 K, Crystal 3, Small (less than 1 g) adiabatic calorimetry | 401.3
332.08 K, Crystal 3, Small (less than 1 g) adiabatic calorimetry | 395.6
332.9 K, Crystal 3, Small (less than 1 g) adiabatic calorimetry | 409.2
333.64 K, Crystal 3, Small (less than 1 g) adiabatic calorimetry | 409.5
333.73 K, Crystal 3, Small (less than 1 g) adiabatic calorimetry | 418.7
334.55 K, Crystal 3, Small (less than 1 g) adiabatic calorimetry | 433.2
335.12 K, Crystal 3, Small (less than 1 g) adiabatic calorimetry | 446.3
335.33 K, Crystal 3, Small (less than 1 g) adiabatic calorimetry | 453.8
336.07 K, Crystal 2, Small (less than 1 g) adiabatic calorimetry | 469.6
336.53 K, Crystal 2, Small (less than 1 g) adiabatic calorimetry | 499.5
336.81 K, Crystal 2, Small (less than 1 g) adiabatic calorimetry | 461.5
337.59 K, Crystal 2, Small (less than 1 g) adiabatic calorimetry | 432.8
337.89 K, Crystal 2, Small (less than 1 g) adiabatic calorimetry | 481.7
338.4 K, Crystal 2, Small (less than 1 g) adiabatic calorimetry | 410.4
339.25 K, Crystal 2, Small (less than 1 g) adiabatic calorimetry | 400.5
339.33 K, Crystal 2, Small (less than 1 g) adiabatic calorimetry | 423.8
340.12 K, Crystal 2, Small (less than 1 g) adiabatic calorimetry | 396.8
340.86 K, Crystal 2, Small (less than 1 g) adiabatic calorimetry | 403.4
340.99 K, Crystal 2, Small (less than 1 g) adiabatic calorimetry | 393.9
341.87 K, Crystal 2, Small (less than 1 g) adiabatic calorimetry | 393.4
342.42 K, Crystal 2, Small (less than 1 g) adiabatic calorimetry | 398.5
342.75 K, Crystal 2, Small (less than 1 g) adiabatic calorimetry | 393.3
343.63 K, Crystal 2, Small (less than 1 g) adiabatic calorimetry | 393.7
343.99 K, Crystal 2, Small (less than 1 g) adiabatic calorimetry | 395.4
344.52 K, Crystal 2, Small (less than 1 g) adiabatic calorimetry | 394.3
345.4 K, Crystal 2, Small (less than 1 g) adiabatic calorimetry | 395
345.57 K, Crystal 2, Small (less than 1 g) adiabatic calorimetry | 396.6
346.29 K, Crystal 2, Small (less than 1 g) adiabatic calorimetry | 395.9
347.15 K, Crystal 2, Small (less than 1 g) adiabatic calorimetry | 397.4
347.17 K, Crystal 2, Small (less than 1 g) adiabatic calorimetry | 396.8
348.06 K, Crystal 2, Small (less than 1 g) adiabatic calorimetry | 397.6
348.72 K, Crystal 2, Small (less than 1 g) adiabatic calorimetry | 398.5
348.95 K, Crystal 2, Small (less than 1 g) adiabatic calorimetry | 398.4
349.84 K, Crystal 2, Small (less than 1 g) adiabatic calorimetry | 399.5
350.3 K, Crystal 2, Small (less than 1 g) adiabatic calorimetry | 400
351.09 K, Crystal 2, Small (less than 1 g) adiabatic calorimetry | 401.1
351.88 K, Crystal 2, Small (less than 1 g) adiabatic calorimetry | 403.6
352.68 K, Crystal 2, Small (less than 1 g) adiabatic calorimetry | 402.9
353.46 K, Crystal 2, Small (less than 1 g) adiabatic calorimetry | 405.6
354.28 K, Crystal 2, Small (less than 1 g) adiabatic calorimetry | 404.8
355.03 K, Crystal 2, Small (less than 1 g) adiabatic calorimetry | 407.3
355.88 K, Crystal 2, Small (less than 1 g) adiabatic calorimetry | 406.9
356.61 K, Crystal 2, Small (less than 1 g) adiabatic calorimetry | 409.2
357.47 K, Crystal 2, Small (less than 1 g) adiabatic calorimetry | 408.7
358.18 K, Crystal 2, Small (less than 1 g) adiabatic calorimetry | 411.3
359.05 K, Crystal 2, Small (less than 1 g) adiabatic calorimetry | 411
359.75 K, Crystal 2, Small (less than 1 g) adiabatic calorimetry | 413.4
360.64 K, Crystal 2, Small (less than 1 g) adiabatic calorimetry | 412.9
361.32 K, Crystal 2, Small (less than 1 g) adiabatic calorimetry | 415.4
362.22 K, Crystal 2, Small (less than 1 g) adiabatic calorimetry | 414.6
362.88 K, Crystal 2, Small (less than 1 g) adiabatic calorimetry | 417.5
363.82 K, Crystal 2, Small (less than 1 g) adiabatic calorimetry | 416.7
364.44 K, Crystal 2, Small (less than 1 g) adiabatic calorimetry | 419.7
365.3 K, Crystal 2, Large sample (1 g) DSC | 422.2
365.4 K, Crystal 2, Small (less than 1 g) adiabatic calorimetry | 418.8
366 K, Crystal 2, Small (less than 1 g) adiabatic calorimetry | 421.6
366.98 K, Crystal 2, Small (less than 1 g) adiabatic calorimetry | 420.9
367.55 K, Crystal 2, Small (less than 1 g) adiabatic calorimetry | 423.3
368.55 K, Crystal 2, Small (less than 1 g) adiabatic calorimetry | 423

From the NIST ThermoML archive (doi:10.1016/j.tca.2007.03.018)
